Where two headings read alike, the source gives them in different places.
How the values were obtained:
[1] = Dynamic vapor sorption (DVS); format: physicochemical
Procedure: Approximately, 10 mg of sample was placed into a mesh vapor sorption balance pan and loaded into a DVS-1 dynamic vapor sorption balance by Surface Measurement Systems. The sample was subjected to a ramping profile from 40-90% relative humidity (RH) at 10% increments, maintaining the sample at each step until a stable weight had been achieved (99.5% step completion). After completion of the sorption cycle, the sample was dried using the same procedure to 0% RH and then a second sorption cycle back to 40% RH. The weight change during the sorption/desorption cycles were plotted, allowing for the hygroscopic nature of the sample to be determined. XRPD analysis was then carried out on any solid retained.

[2] = Salt stability studies (40° C./75% RH for 1 week, XRPD); format: physicochemical
Procedure: Recovered salts were placed in an oven at 40° C./75% RH for 1 week, and the resultant materials were analyzed by XRPD to determine any changes to form or crystallinity.

[3] = Thermodynamic solubility; format: physicochemical; details: for solubility thermodynamic at 24 h: thermodynamic from solid, ambient temperature, read-out: Concentration (thermodynamic solubility)
Procedure: Thermodynamic solubility studies were carried out as follows: 10 mg of prepared salts were suspended in pH 1, 4.5, 6.8 and un-buffered water (300 μL). The pH of the slurries was measured and adjusted accordingly using either 0.2M HCl solution or 0.2M sodium hydroxide solution. The slurries were agitated for 24 hours at ambient temperature using an incubator shaker.

[4] = Salt disproportionation studies; format: physicochemical; details: deionized water, 24 h, ambient temperature
Procedure: Salt disproportionation studies were carried out as follows: 20 mg of prepared salts were weighed into a vial and 0.5 mL of deionized water was added. The samples were then agitated for 24 h at ambient temperature. The pH of the samples was taken pre- and post-agitation. Any solids recovered were submitted for XRPD analysis to determine any changes to form.

[5] = 1 week stability tests (40° C./75% RH, 80° C., ambient light; XRPD and UPLC); format: physicochemical
[6] = Hydration screen (acetone/water mixtures of various water activities); format: physicochemical; details: ambient
Procedure: Hydration screen was carried out as follows: 10 mg of prepared salts were suspended in several acetone/water mixtures of various water activities (low: aw=0.281, medium: aw=0.776 and high: aw=0.919) and agitated at ambient temperatures for 24 hr. Any recovered solids were submitted for XRPD analysis to determine any changes to form.

[7] = Solvent solubility of Compound 1 free base (stepwise solvent addition to amorphous material); format: physicochemical; details: 40 °C, thermodynamic from solid, read-out: Approx. Solubility
Procedure: A solid Compound 1 was obtained as follows. A […] of solution containing about 330 mg of Compound 1 in warm 1,4-dioxane was divided between 33, 2 mL glass vials (1.5 mL in each). The solutions were frozen and freeze-dried by lyophilization overnight. The resulting material was then analyzed by XRPD to confirm mostly amorphous material.
Approximately 10 mg of amorphous Compound 1 was produced in 32×2 mL glass vials from freeze drying and 100 μL of the appropriate solvent system was added to the appropriate vial. Between each addition, the mixture was checked for dissolution and if no dissolution was apparent, the mixture was heated to about 40° C. and checked again. This procedure was continued until dissolution was observed or until 2 mL had been added (to the compound concentration of <5 mg/mL).

[8] = acid counterion; cited from earlier work

## C[C@@H]1CCc2ncc(F)cc2[C@H]2CCCN2c2ccn3ncc(c3n2)C(=O)N1.O=C(O)CC(O)(CC(=O)O)C(=O)O [Compound 1 citrate]
[1]; DVS humidity conditions
  hygroscopicity by DVS (in words): low hygroscopicity
[1]; after DVS cycle
  change in crystalline form after exposure to DVS conditions (post-DVS XRPD): no changes in crystalline form
[1]; at 90% RH
  mass uptake (DVS): around 1.8%
[2]; salt recovered from TBME
  changes to form or crystallinity after stability conditions (XRPD): a decrease to crystallinity but no change to form
[2]; salt recovered from acetone
  changes to form or crystallinity after stability conditions (XRPD): a decrease to crystallinity but no change to form
[3]; aqueous buffer, pH 4.5 buffer
  solubility thermodynamic at 24 h: 300 µg/mL
[3]; pH 1
  solids recovered after thermodynamic solubility study (XRPD): poorly crystalline solids
  thermodynamic solubility (in words): high solubility
[3]; pH 4.5
  solids recovered after thermodynamic solubility study (XRPD): Compound 1 citrate
  thermodynamic solubility (in words): lower solubility
[3]; pH 6.8
  solids recovered after thermodynamic solubility study (XRPD): poorly crystalline free base
  thermodynamic solubility (in words): lower solubility
[3]; pH 6.8 potassium phosphate buffer, aqueous buffer, pH 6.8 buffer
  solubility thermodynamic at 24 h: 900 µg/mL
[3]; simulated gastric fluid, pH 1 buffer
  solubility thermodynamic at 24 h: 18600 µg/mL
[3]; un-buffered water
  solubility thermodynamic at 24 h: 21000 µg/mL
  solids recovered after thermodynamic solubility study (XRPD): Compound 1 citrate
  thermodynamic solubility (in words): highly soluble
[4]
  material recovered after salt disproportionation study (XRPD): poorly crystalline citrate salt
[5]; 40° C./75% RH
  change in purity after 1 week stability test (UPLC): no change to purity
  change to form after 1 week stability test (XRPD): no change to form
[5]; 80° C.
  change in purity after 1 week stability test (UPLC): no change to purity
  change to form after 1 week stability test (XRPD): no change to form
[5]; ambient light
  change in purity after 1 week stability test (UPLC): no change to purity
  change to form after 1 week stability test (XRPD): no change to form
[6]; high water activity aw=0.919, 24 hr
  solid recovered from hydration screen (XRPD): poorly crystalline citrate salt
[6]; low water activity aw=0.281, 24 hr
  solid recovered from hydration screen (XRPD): poorly crystalline citrate salt
[6]; medium water activity aw=0.776, 24 hr
  solid recovered from hydration screen (XRPD): unknown form, referred to here as Form B

## C[C@@H]1CCc2ncc(F)cc2[C@H]2CCCN2c2ccn3ncc(c3n2)C(=O)N1 [Compound 1, (6R,15R)-9-fluoro-15-methyl-2,11,16,20,21,24-hexaazapentacyclo[16.5.2.0^2,6.0^7,12.0^21,25]pentacosa-1 (24),7,9,11,18(25), 19,22-heptaen-17-one]
[5]; 40° C./75% RH
  change in purity after 1 week stability test (UPLC): no change in purity
  change to form after 1 week stability test (XRPD): no change to form
[5]; 40° C./75% RH (relative humidity test)
  average purity after 1 week stability test (UPLC): 99.2%
[5]; 80° C.
  average purity after 1 week stability test (UPLC): 99.3%
  change in purity after 1 week stability test (UPLC): no change in purity
  change to form after 1 week stability test (XRPD): no change to form
[5]; ambient light
  average purity after 1 week stability test (UPLC): 99.2%
  change in purity after 1 week stability test (UPLC): no change in purity
  change to form after 1 week stability test (XRPD): no change to form
[7]; organic solvent or mixture, in 1-Propanol
  solubility: > 100000 µg/mL
[7]; organic solvent or mixture, in 2-Methyl THF
  solubility: < 5000 µg/mL
[7]; organic solvent or mixture, in Cyclohexane
  solubility: < 5000 µg/mL
[7]; organic solvent or mixture, in Cyclopentylmethyl ether
  solubility: < 5000 µg/mL
[7]; organic solvent or mixture, in Dichloromethane
  solubility: > 100000 µg/mL
[7]; organic solvent or mixture, in Diisopropyl ether
  solubility: < 5000 µg/mL
[7]; organic solvent or mixture, in Dimethylformamide
  solubility: > 100000 µg/mL
[7]; organic solvent or mixture, in Ethyl acetate
  solubility: < 5000 µg/mL
[7]; organic solvent or mixture, in Heptane
  solubility: < 5000 µg/mL
[7]; organic solvent or mixture, in Isobutyl acetate
  solubility: < 5000 µg/mL
[7]; organic solvent or mixture, in Isopropyl acetate
  solubility: < 5000 µg/mL
[7]; organic solvent or mixture, in N,N-Dimethylacetamide
  solubility: > 100000 µg/mL
[7]; organic solvent or mixture, in N-Methylpyrrolidone
  solubility: > 100000 µg/mL
[7]; organic solvent or mixture, in TBME:Heptane (60:40 v/v)
  solubility: < 5000 µg/mL
[7]; organic solvent or mixture, in TBME
  solubility: < 5000 µg/mL
[7]; organic solvent or mixture, in Toluene
  solubility: < 5000 µg/mL
[7]; in Water
  solubility: < 5000 µg/mL

## O=C(O)CNC(=O)c1ccccc1 [Hippuric acid]
[8]
  pKa 1: 3.55

## O=C(O)[C@H](O)[C@@H](O)[C@H](O)[C@H](O)CO [D-Gluconic acid (50% in water), D-Gluconic acid]
[8]
  pKa 1: 3.76

## C[C@@H]1CCc2ncc(F)cc2[C@H]2CCCN2c2ccn3ncc(c3n2)C(=O)N1.O=C(O)CCC(=O)O [Compound 1 succinate]
[2]; salt recovered from acetone
  changes to form or crystallinity after stability conditions (XRPD): a decrease in crystallinity but no change to form

## O=S(=O)(O)CCO [2-Hydroxy ethanesulfonic acid]
[8]
  pKa 1: 1.66

## C[C@@H]1CCc2ncc(F)cc2[C@H]2CCCN2c2ccn3ncc(c3n2)C(=O)N1 [Compound 1 edisylate]
[2]; salt recovered from isopropanol
  changes to form or crystallinity after stability conditions (XRPD): become amorphous

## O=C[C@H](O)[C@@H](O)[C@H](O)[C@H](O)C(=O)O [D-Glucuronic acid]
[8]
  pKa 1: 3.18

## CCS(=O)(=O)O [Ethane sulfonic acid]
[8]
  pKa 1: −2.05

## C[C@@H]1CCc2ncc(F)cc2[C@H]2CCCN2c2ccn3ncc(c3n2)C(=O)N1.O=C(O)C(=O)O [Compound 1 oxalate]
[2]; salt recovered from ethanol
  changes to form or crystallinity after stability conditions (XRPD): a change in crystallinity and form
[2]; salt recovered from methanol
  changes to form or crystallinity after stability conditions (XRPD): no change to crystallinity however, changes to form were seen

## C[C@@H]1CCc2ncc(F)cc2[C@H]2CCCN2c2ccn3ncc(c3n2)C(=O)N1.O=C(O)C[C@H](O)C(=O)O [Compound 1 L-malate]
[2]; salt recovered from TBME
  changes to form or crystallinity after stability conditions (XRPD): no change to crystallinity and form

## C[C@@H]1CCc2ncc(F)cc2[C@H]2CCCN2c2ccn3ncc(c3n2)C(=O)N1.Cc1ccc(S(=O)(=O)O)cc1 [Compound 1 tosylate]
[2]; salt recovered from acetone
  changes to form or crystallinity after stability conditions (XRPD): become amorphous

## C[C@@H]1CCc2ncc(F)cc2[C@H]2CCCN2c2ccn3ncc(c3n2)C(=O)N1.O=C(O)/C=C/C(=O)O [Compound 1 fumarate]
[2]; salt recovered from acetone
  changes to form or crystallinity after stability conditions (XRPD): a slight decrease to crystallinity however, no change to form

Source: patent US20190247398A1, “FORMULATIONS OF A MACROCYCLIC TRK KINASE INHIBITOR” (Array BioPharma Inc., priority 2017, published 2019)
